Experimental data reported in patent publication US20130053435A1, “Methods of Treating Alcohol Intoxication, Alcohol Use Disorders and Alcohol Abuse Which Comprises the Administration of Dihydromyricetin” (priority 2011, published 2013).

What was measured:
[1] = system: voluntary EtOH consumption in rats; assay: Intermittent access two-bottle choice voluntary EtOH intake; type: in vivo, rat; conditions: for EtOH consumption: E+D/water sub-group switched after 4 weeks
Method: All fluids were presented in 100 ml graduated glass cylinders with stainless-steel drinking spouts inserted 15 min after the lights went off in the reversed light/dark cycle room. Bottles were weighed 30 min and 24 hrs after the fluids were presented. Each rat was weighed daily to monitor health and calculate the grams of ethanol intake per kilogram of body weight.
Sweetener (2 pk/L) was added to every bottle for the first week. Sweetener (1 pk/L) was added to every bottle for the second week. […] Rats had unlimited access to two bottles of water between the EtOH-access periods. The placement of the EtOH bottle was alternated each EtOH drinking session to control for side preferences. Rats were maintained on 20% EtOH intermittent access two-bottle choice paradigm for 7 weeks (21 EtOH-access sessions). […] The rest of the EtOH group continued EtOH-access sessions. EtOH consumption was expressed as grams of EtOH consumed per kilogram of body weight. Rats access to two bottles of water were taken as the control-group. There was no significant difference in body weight between the control and the EtOH-drinking rats at the end of the experiments.

[2] = Plasma [EtOH] assay; type: in vivo, rat; conditions: two-bottle choice, E+D/water group, end of the fourth week
Method: See Liang (2007). The rat was put into a restraint tube and its tail was warm in about 40° C. The tail vein at the tip of the rail was punched with a sharp blade. Approximately 0.2 ml venous blood was dropped to a capillary blood collection tube containing lithium heparin (Ram Scientific Inc. Yonkers, N.Y.). Blood samples were centrifuged at 2500 rpm for 15 min. The supernatant was collected and stored at −80° C. until assay. The EtOH content of each blood sample was measured in duplicate along with EtOH standards using the alcohol oxidase reaction procedures (GM7 Micro-Stat; Analox Instruments, Lunenberg, Mass.).

**Q.** Which EtOH-intake ([1]; E+D/water group, DHM 0.05 mg/ml in 20% EtOH from start) does the source give for `O=C1c2c(O)cc(O)cc2O[C@H](c2cc(O)c(O)c(O)c2)[C@H]1O` [DHM, (2R,3R)-3,5,7-trihydroxy-2-(3,4,5-trihydroxyphenyl)-2,3-dihydrochromen-4-one] here?
**A.** The EtOH-intake was 2.6 ± 0.4 g/kg/day.

**Q.** And the EtOH consumption ([1]; end of 6th week)?
**A.** Its EtOH consumption is 1.2 ± 0.2 g/kg/day.

**Q.** What about the EtOH consumption ([1]; end of the 5th week) of the same compound?
**A.** Its EtOH consumption is 1.8 ± 1.0 g/kg/day.

**Q.** And the “plasma [EtOH] vs. E/water group” value [2]?
**A.** The value was “significantly lower”.
